Laboratory results taken from PubChem BioAssay (NCI).
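Exposure lasted 48 hours, with cells grown in 96-well plates and compounds tested at five concentrations. GI50 = concentration required for 50% inhibition of growth. At the TGI there is no net growth.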

Tests used:
Experiment in all cases: NCI-60 cell line screen, 48 h
SR leukemia = system: SR leukemia
COLO 205 colon = system: COLO 205 colon
UACC-257 melanoma = system: UACC-257 melanoma
SK-MEL-5 melanoma = system: SK-MEL-5 melanoma
HCT-15 colon = system: HCT-15 colon
MDA-MB-435 = system: MDA-MB-435
IGROV1 ovarian = system: IGROV1 ovarian
M14 melanoma = system: M14 melanoma
HT29 colon = system: HT29 colon
HL-60(TB) leukemia = system: HL-60(TB) leukemia
HS 578T breast = system: HS 578T breast
UO-31 renal = system: UO-31 renal
SN12C renal = system: SN12C renal
786-0 renal = system: 786-0 renal
ACHN renal = system: ACHN renal
OVCAR-5 ovarian = system: OVCAR-5 ovarian
T-47D breast = system: T-47D breast
OVCAR-3 ovarian = system: OVCAR-3 ovarian
LOX IMVI melanoma = system: LOX IMVI melanoma
HCT-116 colon = system: HCT-116 colon
MOLT-4 leukemia = system: MOLT-4 leukemia
SK-MEL-28 melanoma = system: SK-MEL-28 melanoma
NCI-H460 lung = system: NCI-H460 lung
SK-MEL-2 melanoma = system: SK-MEL-2 melanoma
HOP-62 NSCLC = system: HOP-62 NSCLC
CAKI-1 renal = system: CAKI-1 renal
SF-268 CNS = system: SF-268 CNS
NCI-H23 lung = system: NCI-H23 lung
PC-3 prostate = system: PC-3 prostate
MDA-MB-231 breast = system: MDA-MB-231 breast
UACC-62 melanoma = system: UACC-62 melanoma
HCC-2998 colon = system: HCC-2998 colon
EKVX NSCLC = system: EKVX NSCLC
SF-295 CNS = system: SF-295 CNS
NCI-H522 lung = system: NCI-H522 lung
RXF 393 renal = system: RXF 393 renal
CCRF-CEM leukemia = system: CCRF-CEM leukemia
HOP-92 NSCLC = system: HOP-92 NSCLC
MALME-3M melanoma = system: MALME-3M melanoma
SK-OV-3 ovarian = system: SK-OV-3 ovarian
SNB-19 CNS = system: SNB-19 CNS
TK-10 renal = system: TK-10 renal
SF-539 CNS = system: SF-539 CNS
NCI/ADR-RES ovarian = system: NCI/ADR-RES ovarian
K-562 leukemia = system: K-562 leukemia
SNB-75 CNS = system: SNB-75 CNS
NCI-H226 lung = system: NCI-H226 lung
KM12 colon = system: KM12 colon
OVCAR-4 ovarian = system: OVCAR-4 ovarian
A498 renal = system: A498 renal
BT-549 breast = system: BT-549 breast
DU-145 prostate = system: DU-145 prostate
RPMI-8226 leukemia = system: RPMI-8226 leukemia
OVCAR-8 ovarian = system: OVCAR-8 ovarian

CNc1cc2nc3cc(NC)c(C)cc3cc2cc1C
GI50 (SR leukemia): 530 nM
TGI (SR leukemia): > 100000 nM
GI50 (COLO 205 colon): 640 nM
TGI (COLO 205 colon): 2350 nM
GI50 (UACC-257 melanoma): 6830 nM
TGI (UACC-257 melanoma): 32300 nM
GI50 (SK-MEL-5 melanoma): 2050 nM
TGI (SK-MEL-5 melanoma): 14000 nM
GI50 (HCT-15 colon): 3700 nM
TGI (HCT-15 colon): 91100 nM
GI50 (MDA-MB-435): 2480 nM
TGI (MDA-MB-435): 18300 nM
GI50 (IGROV1 ovarian): 562 nM
TGI (IGROV1 ovarian): 16200 nM
GI50 (M14 melanoma): 2240 nM
TGI (M14 melanoma): 14100 nM
GI50 (HT29 colon): 300 nM
TGI (HT29 colon): 1100 nM
GI50 (HL-60(TB) leukemia): 2580 nM
TGI (HL-60(TB) leukemia): 15900 nM
GI50 (HS 578T breast): 1620 nM
TGI (HS 578T breast): 7600 nM
GI50 (UO-31 renal): 365 nM
TGI (UO-31 renal): 13300 nM
GI50 (SN12C renal): 573 nM
TGI (SN12C renal): 10500 nM
GI50 (786-0 renal): 683 nM
TGI (786-0 renal): 2050 nM
GI50 (ACHN renal): 965 nM
TGI (ACHN renal): 20800 nM
GI50 (OVCAR-5 ovarian): 2750 nM
TGI (OVCAR-5 ovarian): 20200 nM
GI50 (T-47D breast): 1100 nM
TGI (T-47D breast): 18400 nM
GI50 (OVCAR-3 ovarian): 1320 nM
TGI (OVCAR-3 ovarian): 10000 nM
GI50 (LOX IMVI melanoma): 446 nM
TGI (LOX IMVI melanoma): 1790 nM
GI50 (HCT-116 colon): 365 nM
TGI (HCT-116 colon): 1490 nM
GI50 (MOLT-4 leukemia): 514 nM
TGI (MOLT-4 leukemia): > 100000 nM
GI50 (SK-MEL-28 melanoma): 5910 nM
TGI (SK-MEL-28 melanoma): 20500 nM
GI50 (NCI-H460 lung): 410 nM
TGI (NCI-H460 lung): 1660 nM
GI50 (SK-MEL-2 melanoma): 6000 nM
TGI (SK-MEL-2 melanoma): 26200 nM
GI50 (HOP-62 NSCLC): 1300 nM
TGI (HOP-62 NSCLC): 16000 nM
GI50 (CAKI-1 renal): 2880 nM
TGI (CAKI-1 renal): 17100 nM
GI50 (SF-268 CNS): 687 nM
TGI (SF-268 CNS): 10900 nM
GI50 (NCI-H23 lung): 624 nM
TGI (NCI-H23 lung): 3110 nM
GI50 (PC-3 prostate): 1070 nM
TGI (PC-3 prostate): 15700 nM
GI50 (MDA-MB-231 breast): 1080 nM
TGI (MDA-MB-231 breast): 2880 nM
GI50 (UACC-62 melanoma): 8820 nM
TGI (UACC-62 melanoma): 34500 nM
GI50 (HCC-2998 colon): 1600 nM
TGI (HCC-2998 colon): 14700 nM
GI50 (EKVX NSCLC): 1040 nM
TGI (EKVX NSCLC): 8480 nM
GI50 (SF-295 CNS): 1410 nM
TGI (SF-295 CNS): 13200 nM
GI50 (NCI-H522 lung): 552 nM
TGI (NCI-H522 lung): 5060 nM
GI50 (RXF 393 renal): 1090 nM
TGI (RXF 393 renal): 2370 nM
GI50 (CCRF-CEM leukemia): 1080 nM
TGI (CCRF-CEM leukemia): 33300 nM
GI50 (HOP-92 NSCLC): 1760 nM
TGI (HOP-92 NSCLC): 19100 nM
GI50 (MALME-3M melanoma): 2700 nM
TGI (MALME-3M melanoma): 19800 nM
GI50 (SK-OV-3 ovarian): 695 nM
TGI (SK-OV-3 ovarian): 12800 nM
GI50 (SNB-19 CNS): 1480 nM
TGI (SNB-19 CNS): 16600 nM
GI50 (TK-10 renal): 3550 nM
TGI (TK-10 renal): 16200 nM
GI50 (SF-539 CNS): 2060 nM
TGI (SF-539 CNS): 16200 nM
GI50 (NCI/ADR-RES ovarian): 1690 nM
TGI (NCI/ADR-RES ovarian): 9280 nM
GI50 (K-562 leukemia): 486 nM
TGI (K-562 leukemia): > 100000 nM
GI50 (SNB-75 CNS): 3750 nM
TGI (SNB-75 CNS): 19400 nM
GI50 (NCI-H226 lung): 810 nM
TGI (NCI-H226 lung): 18800 nM
GI50 (KM12 colon): 792 nM
TGI (KM12 colon): 2280 nM
GI50 (OVCAR-4 ovarian): 1030 nM
TGI (OVCAR-4 ovarian): 3260 nM
GI50 (A498 renal): 1180 nM
TGI (A498 renal): 3900 nM
GI50 (BT-549 breast): 3480 nM
TGI (BT-549 breast): 14300 nM
GI50 (DU-145 prostate): 861 nM
TGI (DU-145 prostate): 11500 nM
GI50 (RPMI-8226 leukemia): 1040 nM
TGI (RPMI-8226 leukemia): 5120 nM
GI50 (OVCAR-8 ovarian): 754 nM
TGI (OVCAR-8 ovarian): 9830 nM
